PMC7278776, “Multidrug Resistance Modulation Activity of Silybin Derivatives and Their Anti-Inflammatory Potential” (Antioxidants, 2020)
Like-named read-outs stand apart in the source and are kept apart here. Marks after values point to notes of the source that are not given here.

How the values were obtained:
HepG2 cells = test: CAA (cellular antioxidant activity) assay; assay type: cell-based; conditions: Homo sapiens
Protocol: For the CAA assay, human hepatocellular carcinoma HepG2 cells (ATCC, Manassas, VA, USA) were seeded into a 96-well microplate at a density of 1 × 10^5 cells/well in EMEM medium supplemented with 10% of FBS, 2 mM L-glutamine and 1 × antibiotic antimycotic solution. The cells were maintained in a CO2 incubator (5% CO2, 37 °C, Memmert GmbH & Co, Büchenbach, Germany). The following day, the plates were washed with PBS and new fresh DMEM was added into each well supplemented with tested samples in the concentration range of 6.25–100 µM and fluorescent probe DCFH-DA (12.5 mg/L). After 1 h of incubation at 37 °C, the medium was replaced with AAPH solution (0.16 mg/mL in PBS), except for the negative control, where PBS was added instead. Directly, the fluorescence was recorded for 2 h in 5 min steps at 485/540 nm excitation/emission (ex./em.).

IL-6 = IL-6 release by LPS-induced macrophages (ELISA); assay type: cell-based, mouse; conditions: for IL-6 (pg/mL): untreated LPS control 1148 ± 35; for IC50: Mus musculus, RAW264.7, RAW 264.7, LPS + compound 6 h, read-out: IL-6, concentration necessary to halve the release (IC50)
Protocol: To determine the level of inflammatory cytokine IL-6, macrophages were cultivated with LPS (1 µg/mL) and the tested compounds (7–50 µM) for 6 h. After incubation, the plates were centrifuged (1000× g; 10 min, 4 °C) and then the medium was removed and frozen to −80 °C. Prior to the detection, the samples were diluted in ELISA diluent in a 1:10 ratio. Production of the cytokine was determined by uncoated ELISA performed according to the manufacturer’s instructions.

acetylcholinesterase = acetylcholinesterase (Homo sapiens, UniProt P22303); test: Acetylcholinesterase activity, Ellman colorimetric method; assay type: biochemical
Sequence of acetylcholinesterase (P22303 32-614, species assumed): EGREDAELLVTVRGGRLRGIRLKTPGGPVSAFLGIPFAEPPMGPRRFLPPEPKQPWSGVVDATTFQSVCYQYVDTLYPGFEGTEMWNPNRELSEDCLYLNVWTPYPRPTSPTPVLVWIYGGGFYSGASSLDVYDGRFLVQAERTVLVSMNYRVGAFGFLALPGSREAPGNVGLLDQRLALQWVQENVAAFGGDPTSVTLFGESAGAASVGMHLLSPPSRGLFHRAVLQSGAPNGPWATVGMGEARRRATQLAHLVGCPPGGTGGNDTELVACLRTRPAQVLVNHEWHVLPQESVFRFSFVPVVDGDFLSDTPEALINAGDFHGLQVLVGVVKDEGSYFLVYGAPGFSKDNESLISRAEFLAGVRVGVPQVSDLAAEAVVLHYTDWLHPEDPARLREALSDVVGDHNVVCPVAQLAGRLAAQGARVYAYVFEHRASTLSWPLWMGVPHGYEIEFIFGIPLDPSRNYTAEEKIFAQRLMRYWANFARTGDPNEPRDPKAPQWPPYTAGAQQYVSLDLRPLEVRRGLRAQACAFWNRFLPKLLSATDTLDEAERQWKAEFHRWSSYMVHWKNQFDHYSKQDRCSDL
Protocol: The activity of acetylcholinesterase was measured by the Ellman colorimetric method. A stock solution of acetylcholinesterase was prepared in PBS (0.057 U/mL), 100× diluted and stored in a freezer (−20 °C). Further, the solution of DTNB (5,5′-dithio-bis-2-nitrobenzoic acid, 50 µM) and ATC ([…], 50 µM) was prepared. […] Afterwards, 10 µL of DNTB and ATC solution was added, and the reaction was launched. After the addition of reagents, the absorbance at 412 nm was recorded for 10 min every minute.

A2780/DOX = test: Sensitization of the MDR cell line to doxorubicin; assay type: cell-based, human
Protocol: A multidrug resistant ovarian sub-line resistant to doxorubicin (A2780/DOX, Sigma-Aldrich) was cultivated in DMEM medium with 10% FBS and 1 × antibiotic antimycotic solution. Every other passage, doxorubicin at the final concentration of 0.1 µM was added to the culture medium to maintain the resistance of the cell line. To perform experiments, the cells were seeded at 1 × 10^5 cell/mL into the wells of a 96-well plate and incubated for 24 h. Afterwards, the cells were washed with PBS and fresh DMEM medium with tested compounds at 10, 20 and 30 µM were added to each well, except for the control wells. Subsequently, the cells were exposed to increasing concentrations of doxorubicin (0.6–20 µM) for 72 h. After incubation, the resazurin assay was performed as described above. The IC50 of doxorubicin was calculated for both the control and the samples and the fold change was counted up. […] The fold change lower than 1 means an antagonistic effect. (1) FOLD CHANGE=IC50 value of DOX cells treated with chemotherapeutic /IC50 value of DOX cells treated with chemotherapeutic and compound

ABCA1 = ABCA1 mRNA expression (real-time PCR); assay type: cell-based, human; conditions: A2780/DOX
Protocol: (§1) The A2780/DOX cell line was seeded into 5 cm Petri dishes with DMEM medium at 1 × 10^5 cell/mL. After 24 h, the dishes were washed with PBS and new DMEM medium supplemented with doxorubicin (at concentration equal to IC25) and samples (10 µM) were added. After 48 h of treatment, the cells were washed with PBS and harvested using the standard trypsin-EDTA procedure. The harvested cells were centrifuged (3200× g; 10 min, 4 °C). The supernatant was discarded, and the pellets were washed with 1.5 mL of cooled PBS (5400× g; 10 min, 4 °C). The washing step was repeated with 1 mL of PBS and the cells were centrifuged again (10,000× g; 3 min, 4 °C). Afterwards, the pellets were resuspended in 1 mL of Trizol (Invitrogen, Carlsbad, CA, USA) and transferred into pre-cooled RNase-free microfuge tubes. The samples were stored at −80 °C.
(§2) A Quant-iT RiboGreen RNA Assay Kit (Invitrogen) was used to determine the RNA concentration using the Infinite M200 plate reader (Tecan, Männedor, Switzerland). The cDNA was prepared from 0.5 µg of total RNA using a RevertAid First Strand Synthesis cDNA Kit (MBI Fermentas, Vilnius, Lithuania). The amplification of the ubiquitin C gene fragment was used to determine the quality of cDNA.
(§3) The experiment was performed using the ViiA7 Real-Time polymerase chain reaction (PCR) System (Life Technologies, Camarillo, CA, USA) with a 384-well block. Before quantitative real-time PCR, the master mix was prepared by mixing 2 µL of 8 × diluted cDNA, 1.75 µL of RNase free water, 1 µL of 5 × HotFIREPol Probe quantitative PCR Mix Plus (Solis Biodyne, Tartu, Estonia) and 0.25 µL of specific 20 × TaqMan Gene Expression Assay (Life Technologies), giving 5 µL of final reaction volume. Cycling parameters were: initial hold at 50 °C for 2 min and denaturation at 95 °C for 10 min, followed by 45 cycles consisting of denaturation at 95 °C for 15 s and annealing/extension at 60 °C for 1 min. After each extension phase, the fluorescence values were acquired. Duplicate samples were used for measurement and samples with a standard deviation of duplicates > 1.0 cycle threshold (Ct) were re-analyzed. The real time PCR procedure was maintained according to MIQE (Minimum information for publication of quantitative real-time PCR experiments) guidelines. The software REST 2009 (Qiagen, Hilden, Germany) served to compare relative transcript levels of genes in the cell line.

ABCA2 = ABCA2 mRNA expression (real-time PCR); assay type: cell-based, human; conditions: A2780/DOX, 10 µM combined with doxorubicin at IC25, 48 h
Protocol: as §1, §2, §3

ABCA5 = ABCA5 mRNA expression (real-time PCR); assay type: cell-based, human; conditions: A2780/DOX
Protocol: as §1, §2, §3

ABCB6 = ABCB6 mRNA expression (real-time PCR); assay type: cell-based, human; conditions: A2780/DOX
Protocol: as §1, with “After 24 h, the dishes were washed with PBS and new DMEM medium supplemented with doxorubicin (at concentration equal to IC25) and samples (10 µM) were added.” left out
as §2, §3

ABCC5 = ABCC5 mRNA expression (real-time PCR); assay type: cell-based, human; conditions: A2780/DOX, 10 µM combined with doxorubicin at IC25, 48 h
Protocol: as §1, §2, §3

ABCC10 = ABCC10 mRNA expression (real-time PCR); assay type: cell-based, human; conditions: A2780/DOX
Protocol: as §1, with “After 24 h, the dishes were washed with PBS and new DMEM medium supplemented with doxorubicin (at concentration equal to IC25) and samples (10 µM) were added.” left out
as §2, §3

ABCD2 = ABCD2 mRNA expression (real-time PCR); assay type: cell-based, human; conditions: A2780/DOX
Protocol: as §1, with “After 24 h, the dishes were washed with PBS and new DMEM medium supplemented with doxorubicin (at concentration equal to IC25) and samples (10 µM) were added.” left out
as §2, §3

[1] = 10 µM combined with doxorubicin at IC25, 48 h
[2] = 10 µM, 48 h, without doxorubicin
[3] = HepG2, DCFH-DA/AAPH, read-out: CAA, concentration necessary to halve the fluorescence response (IC50)

Structure (SMILES)	IL-6 (pg/mL) (IL-6; compound 7 µM)	IL-6 (pg/mL) (IL-6; compound 15 µM)	IL-6 (pg/mL) (IL-6; compound 50 µM)	IC50 (acetylcholinesterase)	Doxorubicin-sensitization rate (ratio of IC50 of doxorubicin and doxorubicin + tested compound) (A2780/DOX; compound 10 µM)	Doxorubicin-sensitization rate (ratio of IC50 of doxorubicin and doxorubicin + tested compound) (A2780/DOX; compound 20 µM)	Doxorubicin-sensitization rate (ratio of IC50 of doxorubicin and doxorubicin + tested compound) (A2780/DOX; compound 30 µM)	ABCA1 Expression Difference (ABCA1; [1])	ABCA2 Expression Difference (ABCA2)	ABCA5 Expression Difference (ABCA5; [1])	ABCB6 Expression Difference (ABCB6; [1])	ABCC5 Expression Difference (ABCC5)	ABCC10 Expression Difference (ABCC10; [1])	ABCC10 Expression Difference (ABCC10; [2])	ABCD2 Expression Difference (ABCD2; [1])	ABCD2 Treated vs. Untreated (ABCD2; [1])	ABCD2 Expression Difference (ABCD2; [2])	IC50 (HepG2 cells; [3])	IC50 (IL-6)	Doxorubicin-sensitization rate (ratio of IC50 of doxorubicin and doxorubicin + tested compound) (A2780/DOX; compound 50 µM)	further results
COc1cc([C@H]2Oc3cc(-c4oc5cc(O)cc(O)c5c(=O)c4O)ccc3O[C@@H]2CO)ccc1O [Dehydrosilybin A, 2,3-dehydrosilybin A]	292 ± 15 ^a pg/mL	79 ± 8 ^a pg/mL	0 ± 0 ^a pg/mL	6.9 ± 0.6 µM	(2.1 ± 0.3) ×	(2.5 ± 0.2) ×	(9.5 ± 0.7) ×	4.172	1.105	1.223	1.149	1.116	1.214	1.200	0.698	DOWN	1.205	–	–	–	IC50 (HepG2 cells; HepG2, read-out: CAA, concentration necessary to halve the fluorescence response (IC50)): 11.8 ± 0.7 µM; IL-6 (pg/mL) (IL-6; compound 50 µM, listed as dehydrosilybin A): under the detection limit of the ELISA assay; IL-6 modulation effect higher in comparison with its diastereomeric mixture (IL-6; vs dehydrosilybin AB): approximately 70%; Doxorubicin-sensitization rate (ratio of IC50 of doxorubicin and doxorubicin + tested compound) (A2780/DOX; compound 30 µM, listed as dehydrosilybin A): ~10 ×
COc1cc([C@H]2Oc3cc([C@H]4Oc5cc(O)cc(O)c5C(=O)[C@@H]4O)ccc3O[C@@H]2CO)ccc1O [Silybin A, silybin A]	422 ± 42 ^b pg/mL	271 ± 15 ^c pg/mL	125 ± 16 ^c pg/mL	181 ± 6.1 µM	(1.3 ± 0.1) ×	(1.6 ± 0.2) ×	(1.9 ± 0.1) ×	2.702	1.239	2.427	1.665	1.782	1.812	1.260	0.426	DOWN	1.063	9.8 ± 0.4 µM	8.4 ± 0.3 µM	(3.6 ± 0.3) ×	–
COc1cc(C2Oc3cc([C@H]4Oc5cc(O)cc(O)c5C(=O)[C@@H]4O)ccc3OC2CO)ccc1O (some centres unmarked) [Silybin AB, silybin]	311 ± 18 ^a pg/mL	173 ± 5 ^b pg/mL	83 ± 4 ^b pg/mL	22.6 ± 1.4 µM	(1.4 ± 0.1) ×	(1.6 ± 0.1) ×	(1.7 ± 0.1) ×	2.922	1.207	2.122	1.527	1.787	1.855	1.857	0.494	DOWN	1.566	10.7 ± 0.9 µM	4.8 ± 0.3 µM	(7.7 ± 0.4) ×	Doxorubicin-sensitization rate (ratio of IC50 of doxorubicin and doxorubicin + tested compound) (A2780/DOX; compound 50 µM, listed as silybin AB): ~10 ×; ABCA1 Expression Difference (ABCA1; [2]): 2.021; ABCA5 Expression Difference (ABCA5; [2]): 1.933; ABCB6 Expression Difference (ABCB6; [2]): 1.838
